The source of these data is patent US11555180B2, “Methods and apparatuses for patient-derived micro-organospheres” (Xilis, Inc., priority 2019, dated 2023).

Assay [1] relates to tumor Micro-Organospheres. Briefly: drug screen on Patient-Derived Micro-Organospheres formed from a patient tumor biopsy. The class given is cell-based. Conditions: for percent survival of the Micro-Organospheres in the presence of the drug: Example 3, FIG. 23B, 23C. From the text: The Patient-Derived Micro-Organospheres described herein may be used in a variety of different assays, and in particular may be used to determine drug formulation effects, including toxicity, on normal and/or abnormal (e.g., cancerous) tissue. For example, drug screening may include applying Micro-Organospheres into all or some wells of multi-well (e.g., a 96-well) plate. Alternatively custom plates may be used (e.g., a 10,000 micro-well array may be formed of a 100 × 100 wells). The Micro-Organospheres (e.g., gel droplets) may be applied into, or in some variations onto the multiple microwell arrays and incubated with culture medium. The Micro-Organospheres may be cultured over the course of 3-5 days. In some variations, on day 5, the wells (e.g., micro-reactors) may then be dosed with drug compounds, e.g., based on a set of FDA-approved anticancer drugs, to examine the effects of the drug panel. For example, the drugs texted may be based on the National Cancer Institute (Division of Cancer Treatment and Diagnosis (11)) screen, consisting of 147 agents intended to enable cancer research, drug discovery and combination drug studies. On Day 7, the Micro-Organospheres may be imaged via standard fluorescent microscopy and ranked based on drug response.
In this example, the screening assay may be automated. This may enable repeatable and automated workflow, which may increase the number of drugs screened from a few to hundreds. FIGS. 17A-17E illustrate one example of this workflow. In FIG. 17A, a tumor biopsy is taken and a plurality (e.g., >10,000) Micro-Organospheres are formed as described above (in FIG. 17A the junction region forming the Micro-Organospheres is illustrated).
The workflow shown in FIGS. 17A-17E may enable an integrated device to be used for growing, dosing and/or reviewing the Micro-Organospheres. […] Their response to drug treatments, such as IC-50, cytotoxicity, and growth curves, may be measured to identify effective therapeutics against the patient's tumor.

The next assay has as its system traditional cell line. The experiment in a line: traditional (2D) tumor cell line dosed with drug. Type of assay: cell-based. Conditions: Example 2, FIG. 22A, all dose ranges examined. From the text: As mentioned above, the Patient-Derived Micro-Organospheres and methods of using them to screen for drug compositions may be used to accurately predict the response of a patient tumor to one or more drug therapies. […] For example, in FIG. 22A-22D, the Micro-Organospheres, but not a cell line, was able to correlate with patient response.

The test system of a further assay is patient tumor. The experiment in a line: actual response of the patient's tumor to treatment with the drug. Type of assay: in vivo. The procedure:
In a similar set of experiments, Micro-Organospheres were generated from biopsy material (FIG. 23A), and a drug effect screen was performed using the resulting Micro-Organospheres. […] Thus, the Micro-Organospheres correlated strongly with patient response to the standard of care drugs. In this case, the patient endured six months of side effects and toxicities that may have been avoided by the predicted response from the Micro-Organospheres, indicating (within 7-10 days from the biopsy) that the tumor would not respond to these drugs.

Regarding `CCc1c2c(nc3ccc(OC(=O)N4CCC(N5CCCCC5)CC4)cc13)-c1cc3c(c(=O)n1C2)COC(=O)[C@]3(O)CC` [Irinotecan], the “percent survival of the Micro-Organospheres in the presence of the drug” value in assay [1] is “lack of effect”.

In the case of `O=C1[O][Pt]2([NH][C@@H]3CCCC[C@H]3[NH]2)[O]C1=O` [Oxaliplatin], the “effect of the drug on the cell line” value in the assay on traditional cell line was “no effect”. Moreover, the “cell survival of tumor Micro-Organospheres” value in assay [1] (Example 2, FIG. 22B) is “significant decreases in cell survival”. Besides, the “percent survival of the Micro-Organospheres in the presence of the drug” value in assay [1] is “no change in the percent survival”. Besides, the “tumor response to treatment” value with patient tumor (Example 2, FIG. 22C (before) and 22D (post treatment)) is recorded as “responded to treatment”. Further, the “patient response to treatment” value with patient tumor (Example 3, treated with both Oxalipalatin and Irinotecan, after 6 months of treatment) was “no response”.
